Measurements published in patent US8637526B2, “Pyrazolopyrimidine JAK inhibitor compounds and methods” (Genentech, Inc., priority 2008, dated 2014).
Read-outs that look alike come from different tables or passages of the source.

How the values were obtained:
[1] = biological target: human JAK2 kinase domain (Homo sapiens (Human), UniProt O60674); assay: JAK2 Inhibition Assay Protocol (Caliper LabChip peptide phosphorylation); format: biochemical; details: enzymatic activity, 25 uM ATP; read-out: JAK2i Ki
Source text: Saltzman et al., Biochem. Biophys. Res. Commun. 246:627-633 (2004). The catalytically active kinase domain of human JAK2 was purified from extracts of SF9 insect cells infected with a recombinant baculovirus expression vector encoding the human JAK2 kinase domain (amino acid residues D812-G1132 according to the numbering of GenBank sequence accession number NP_004963.1). The activity of the JAK2 kinase domain can be measured by a number of direct and indirect methods, including quantification of phosphorylation of peptide substrates derived from the human JAK3 protein Saltzman et al., Biochem. Biophys. Res. Commun. 246:627-633 (2004). The activity of the JAK2 kinase domain was measured in vitro by monitoring phosphorylation of JAK3 derived peptides using the Caliper LabChip technology (see Examples).
The activity of the isolated kinase domain of JAK2 can be measured by monitoring phosphorylation of peptide substrates derived from the human JAK3 kinase in vitro Saltzman et al., Biochem. Biophys. Res. Commun. 246:627-633 (2004). The human JAK2 kinase domain was expressed with an N-terminal His6 tag followed by a thrombin cleavage site using the baculovirus expression vector system. The kinase domain expressed is defined as amino acid residues D812-G1132 according to the numbering of GenBank sequence accession number NP_004963.1. Recombinant DNA transfer vectors were co-transfected with BakPAK6 linearized DNA (Clontech Laboratories, Inc., Mountain View, Calif.) and the resulting viral stocks were amplified using standard protocols. Protein was produced in SF9 cells grown to a cell density of 2E6/mL in ESF921 media (Expression Systems LLC, Woodland, Calif.) and infected at an M.O.I. of 1 in Wave bioreactors. The cells were harvested 72 hours post infection, and active JAK2 enzyme was purified from the lysates of infected cells by Ni-NTA (Qiagen, Valencia, Calif.) column chromatography followed by Sephacryl S-200 (GE Healthcare, Piscataway, N.J.) column chromatography.
(§1) The catalytically active kinase domain of human JAK1, JAK2, JAK3 or TYK2 was purified from extracts of SF9 insect cells infected with a recombinant baculovirus expression vector encoding the human JAK1, JAK2, JAK3 or TYK2 kinase domains (JAK1 amino acid residues N852-D1154 according to the numbering of GenBank sequence accession number P23458, JAK2 amino acid residues D812-G1132 according to the numbering of GenBank sequence accession number NP_004963.1; JAK3 amino acid residues S783-S1124 according to the numbering of GenBank sequence accession number P52333, and TYK2 amino acid residues N873-C1187 according to the numbering of GenBank sequence accession number P29597). The activity of the JAK1, JAK2, JAK3 or TYK2 kinase domains can be measured by a number of direct and indirect methods, including quantification of phosphorylation of peptide substrates derived from the human JAK3 protein (Saltzman et al., Biochem. Biophys. Res. Commun. 246:627-633 (2004)). The activity of the JAK1, JAK2, JAK3 or TYK2 kinase domains was measured in vitro by monitoring phosphorylation of JAK3 derived peptides using the Caliper LabChip technology.
(§2) The activity of the isolated JAK2 kinase domain was measured by monitoring phosphorylation of a peptide derived from JAK3 ([…] fluorescently labeled on the N-terminus with 5-carboxyfluorescein using the Caliper LabChip technology (Caliper Life Sciences, Hopkinton, Mass.). […] Reactions were incubated at 22° C. in 384-well polypropylene microtiter plates for 30 minutes and then stopped by addition of 250 μL of an EDTA containing solution (100 mM Hepes pH 7.2, 0.015% Brij-35, 150 mM EDTA), resulting in a final EDTA concentration of 50 mM. After termination of the kinase reaction, the proportion of phosphorylated product was determined as a fraction of total peptide substrate using the Caliper LabChip 3000 according to the manufacturer's specifications. Ki values were then determined using the Morrison tight binding model.

[2] = biological target: human TYK2 kinase domain (Homo sapiens (Human), UniProt P29597); assay: TYK2 Inhibition Assay Protocol (Caliper LabChip peptide phosphorylation); format: biochemical; details: enzymatic activity, 25 uM ATP; read-out: TYK2i Ki
Source text: as §1
as §2, with “JAK1 or TYK2” for “JAK2”, “25 uL” for “250 μL”, “model (Morrison, J. F., Biochim. Biophys. Acta. 185:269-296 (1969); William, J. W. and Morrison, J. F., Meth. Enzymol., 63:437-467 (1979)).” for “model.”

[3] = system: NK92 cells; assay: IL-12-stimulated STAT4 phosphorylation in NK92 cells (TYK2-dependent signaling, MSD); format: cell-based; details: read-out: IL12-pSTAT4 NK92 EC50
Experimental: The activities of compounds were determined in cell-based assays that are designed to measure TYK2-dependent signaling. Compounds were serially diluted in DMSO and incubated with NK92 cells (American Type Culture Collection (ATCC); Manassas, Va.) in 96-well microtiter plates in RPMI medium at a final cell density of 100,000 cells per well and a final DMSO concentration of 0.57%. Human recombinant IL-12 (R&D systems; Minneapolis, Minn.) was then added at a final concentration of 10 ng/mL to the microtiter plates containing the NK92 cells and compound and the plates were incubated for 1 hr at 37° C. Compound-mediated effects on STAT4 phosphorylation were then measured in the lysates of incubated cells using the Meso Scale Discovery (MSD) technology (Gaithersburg, Md.) according to the manufacturer's protocol and EC50 values were determined

[4] = NK92 cells, IL-12 10 ng/mL, 1 hr

Sequence of human JAK2 kinase domain (O60674 812-1132): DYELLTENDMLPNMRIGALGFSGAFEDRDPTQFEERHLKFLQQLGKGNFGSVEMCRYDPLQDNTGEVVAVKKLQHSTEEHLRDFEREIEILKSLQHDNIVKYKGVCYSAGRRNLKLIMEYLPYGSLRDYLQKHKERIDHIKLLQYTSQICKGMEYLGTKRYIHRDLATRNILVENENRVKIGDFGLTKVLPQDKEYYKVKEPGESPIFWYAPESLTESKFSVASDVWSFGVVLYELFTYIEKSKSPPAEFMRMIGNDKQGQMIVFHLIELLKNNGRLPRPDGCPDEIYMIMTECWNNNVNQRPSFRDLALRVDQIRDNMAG
Sequence of human TYK2 kinase domain (P29597 873-1187): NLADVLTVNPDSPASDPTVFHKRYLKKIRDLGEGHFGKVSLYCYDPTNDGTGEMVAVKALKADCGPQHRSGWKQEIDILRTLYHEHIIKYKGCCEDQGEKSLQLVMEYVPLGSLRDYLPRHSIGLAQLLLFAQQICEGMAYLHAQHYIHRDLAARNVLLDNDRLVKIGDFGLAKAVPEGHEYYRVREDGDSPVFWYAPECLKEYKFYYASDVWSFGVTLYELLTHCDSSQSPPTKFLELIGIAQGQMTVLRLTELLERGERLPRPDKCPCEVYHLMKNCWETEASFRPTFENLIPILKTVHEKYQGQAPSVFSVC

SMILES	Ki [1] [nM]	Ki [2] [nM]	EC50 [3, 4] [nM]	EC50 ([3]; NK92, 1 h) [nM]
Cc1cc(NC(=O)c2cnn3ccc(N)nc23)n(-c2cc(Cl)ccc2C)n1 [Example 226]	0.5	32.8	336	–
Cc1nc(-c2ccccc2C)c(NC(=O)c2cnn3ccc(N)nc23)s1 [Example 231, 5-amino-pyrazolo[1,5-a]pyrimidine-3-carboxylic acid (2-methyl-4-o-tolyl-thiazol-5-yl)-amide]	1.8	43.8	–	3300
Cc1cc(NC(=O)c2cnn3ccc(Nc4cccc(C(F)(F)F)c4)nc23)on1 [Example 240, 5-(3-Trifluoromethyl-phenylamino)-pyrazolo-[1,5-a]pyrimidine-3-carboxylic acid (3-methyl-isoxazol-5-yl)-amide]	3.2	62.4	579	–
O=C(N[C@H]1CC[C@H](O)CC1)c1cnn2ccc(NC3CCc4ccccc43)nc12 (stereo partly drawn) [Example 299, 5-(Indan-1-ylamino)-pyrazolo[1,5-a]pyrimidine-3-carboxylic acid (4-hydroxy-cyclohexyl)-amide]	0.8	50.9	1770	–

Second part, led by results:

Ki [1] [nM]	Ki [2] [nM]	EC50 [3, 4] [nM]	SMILES	EC50 ([3]; NK92, 1 h) [nM]
0.1	4.1	158	Nc1ccn2ncc(C(=O)Nc3c[nH]nc3-c3cc(Cl)ccc3Cl)c2n1 [Example 248, 5-Amino-pyrazolo[1,5-a]-pyrimidine-3-carboxylic acid [3-(2,5-dichloro-phenyl)-1H-pyrazol-4-yl]-amide]	–
0.9	43.5	603	Nc1ccn2ncc(C(=O)Nc3ccnn3-c3cc(Cl)ccc3Cl)c2n1 [Example 277, 5-Amino-pyrazolo[1,5-a]-pyrimidine-3-carboxylic acid [2-(2,5-dichloro-phenyl)-2H-pyrazol-3-yl]-amide]	–
1.6	152	1100	O=C(NC1CCOCC1)c1cnn2ccc(NC3Cc4ccccc4C3)nc12 [Example 297, 5-(Indan-2-ylamino)-pyrazolo[1,5-a]pyrimidine-3-carboxylic acid (tetrahydro-pyran-4-yl)-amide]	–
4.2	97.6	5300	Cc1cc(NC(=O)c2cnn3ccc(N)nc23)n(-c2ccccc2C)n1 [Example 343, 5-Amino-pyrazolo[1,5-a]-pyrimidine-3-carboxylic acid (5-methyl-2-o-tolyl-2H-pyrazol-3-yl)-amide]	–
